Measurements as given in patent US20230064292A1, “METHODS OF TREATING PSMA-POSITIVE CANCER USING RADIONUCLIDE THERAPY” (priority 2020, published 2023).
Entries after “also recorded” stand apart in the source; their conditions may differ. Marks after values point to notes of the source that are not given here.

Assays:
PSMA+ tumors = experiment: Tumor dosimetry and uptake by SPECT imaging in patients; format: in vivo, human
Description: In addition to assessing radiation exposure to dose limiting organs, it is also feasible to use SPECT/CT or SPECT/MRI imaging and dosimetry to estimate CTT1403 dose to the tumor, which could indicate efficacy.
CTT1057 PSMA+ PET is used to screen patients for PSMA avid tumors prior to enrollment into the clinical trial. SPECT/CT images are collected serially on days 1, 3, 5 and 8 following CTT1403 dose administration to assess dosimetry, or exposure of normal organs and the tumor to the radionuclide, 177-lutetium. […] FIGS. 2-7 show the PET images collected prior to and after CTT1403 and serial SPECT/CT images collected from patients enrolled in the clinical trial. Further, Table 4 compares the doses in kidney and tumor reported by Violet et al (Violet, J., et al., “Dosimetry of (177)Lu-PSMA-617 in Metastatic Castration-Resistant Prostate Cancer: Correlations Between Pretherapeutic Imaging and Whole-Body Tumor Dosimetry with Treatment Outcomes” J Nucl Med, 2019. 60(4): p. 517-523) compared to findings to date in patients administered CTT1403.

[1] = Kidney dosimetry by SPECT/CT or SPECT/MRI in patients; format: in vivo, human
Description: CTT1403 localization in various organs is accomplished by estimating dosimetry using SPECT/CT or SPECT/MRI imaging of the radioisotope component (using the gamma particle emission) of CTT1403, ^177Lu, up to 8 days after the first dose. […] Preclinical studies in rats with CTT1403 identified the kidneys as the dose limiting organ. Table 2, below, summarizes kidney dosimetry calculated from the first 15 patients enrolled in the study after receipt of escalating doses of CTT1403 and contrasts it with the predicted kidney exposure from rat studies. […] Preclinical studies in rats estimated expected kidney exposure of ˜5.2 Gy/GBq. […] CTT1403 may be sequestered in tumors and under exposing the kidney.

[2] = CTT1403 (7.5 GBq +/− 10%), preliminary, 2 tumors per patient in patients 14 and 15
[3] = patient 1, dose 0.73 GBq (19.6 mCi)
[4] = patient 4, dose 3.0 GBq (81.1 mCi)
[5] = patient 6, dose 2.98 GBq (80.5 mCi)
[6] = patient 14, dose 7.98 GBq (215.7 mCi)
[7] = patient 15, dose 7.77 GBq (210 mCi)
[8] = patient 1, injected activity 0.73 GBq (19.6 mCi)
[9] = patient 2, injected activity 1.50 GBq (40.5 mCi)
[10] = patient 3, injected activity 2.03 GBq (54.8 mCi)
[11] = patient 4, injected activity 3.00 GBq (81.1 mCi)
[12] = patient 5, injected activity 2.95 GBq (79.8 mCi)
[13] = patient 6, injected activity 2.98 GBq (80.5 mCi)
[14] = patient 7, injected activity 4.48 GBq (121.1 mCi)
[15] = patient 8, injected activity 4.52 GBq (122.2 mCi)
[16] = patient 9, injected activity 3.53 GBq (95.5 mCi)
[17] = patient 10, injected activity 4.48 GBq (121.2 mCi)
[18] = patient 11, injected activity 5.66 GBq (153.0 mCi)
[19] = patient 12, injected activity 5.99 GBq (162.0 mCi)
[20] = patient 13, injected activity 5.99 GBq (162.0 mCi)
[21] = patient 14, injected activity 7.98 GBq (215.7 mCi)
[22] = patient 15, injected activity 7.77 GBq (210.0 mCi)

O=C(O)CC[C@H](NP(=O)(O)OCCC[C@H](NC(=O)CC[C@H](NC(=O)CCCCCNC(=O)CCC(NC(=O)CCOCCOCCOCCOCCNC(=O)CCC(=O)N1Cc2ccccc2-c2c(nnn2CCCNC(=O)CN2CCN3CCN4CCN(CC2)CC(=O)[O][177Lu]([O]C(=O)C3)[O]C(=O)C4)-c2ccccc21)C(=O)NC(CCCCNC(=O)CCCc1ccc(I)cc1)C(=O)O)C(=O)O)C(=O)O)C(=O)O (stereo partly shown) [CTT1403]
CTT1403 within tumor by SPECT (PSMA+ tumors; 4.5 GBq, through 7 days post-administration (FIG. 9, patient 12)): uptake of CTT1403 in tumors; also recorded: still clearly present | uptake of CTT1403 in tumors by SPECT (PSMA+ tumors; 24 hours after administration of 7.5 GBq (FIG. 10, patient 17)): distinct uptake | Tumor Dose to date, Dose Gy/GBq (PSMA+ tumors; [2]): 1.948* Gy/GBq | Tumor Dose to date, Mean Dose (Gy) (PSMA+ tumors; [2]): 14.61* Gy | tumor dose (PSMA+ tumors; administered by 3.0 GBq): ~1 Gy | Tumor 1 (Gy) (PSMA+ tumors; [3]): 0.122 Gy | Tumor 2 (Gy) (PSMA+ tumors; [3]): 0.1164 Gy | Tumor 1 (Gy) (PSMA+ tumors; patient 2, dose 1.5 GBq (40.5 mCi)): 0.2461 Gy | Tumor 2 (Gy) (PSMA+ tumors; patient 3, dose 2.03 GBq (54.8 mCi)): 0.2553 Gy | Tumor 1 (Gy) (PSMA+ tumors; [4]): 1.282 Gy | Tumor 2 (Gy) (PSMA+ tumors; [4]): 0.3729 Gy | Tumor 3 (Gy) (PSMA+ tumors; [4]): 1.906 Gy | Tumor 1 (Gy) (PSMA+ tumors; patient 5, dose 2.95 GBq (79.8 mCi)): 1.639 Gy | Tumor 1 (Gy) (PSMA+ tumors; [5]): 1.104 Gy | Tumor 2 (Gy) (PSMA+ tumors; [5]): 0.329 Gy | Tumor 1 (Gy) (PSMA+ tumors; [6]): 13.6 Gy | Tumor 2 (Gy) (PSMA+ tumors; [6]): 12.7 Gy | Tumor 1 (Gy) (PSMA+ tumors; [7]): 22.4 Gy | Tumor 2 (Gy) (PSMA+ tumors; [7]): 9.74 Gy | tumor dose compared to 177Lu-PSMA-617 (PSMA+ tumors; patients at 7.5 GBq+/−10%, early reported): at least similar and possibly even greater | tumor Gy/GBq compared to 177Lu-PSMA-617 in patients with PSA<50% (PSMA+ tumors; vs patients with less than a 50% reduction in circulating PSA): significantly outperform | Kidney dose, Dose Gy/GBq ([1]; CTT1403 (7.5 GBq +/− 10%)): 0.689 Gy/GBq | Kidney dose, Mean Dose (Gy) ([1]; CTT1403 (7.5 GBq +/− 10%)): 4.895 Gy | Kidney dosimetry calculated from the first 15 patients ([1]; first 15 patients enrolled, escalating doses): 0.687 Gy/GBq | factor by which clinical kidney dosimetry is lower than predicted by rat studies ([1]; first 15 patients vs rat prediction): ~10 | absorbed dose (Gy) - L. kidney [1, 8]: 0.441 Gy | absorbed dose (Gy) - R. kidney [1, 8]: 0.430 Gy | absorbed dose per GBq (Gy/GBq) - L. kidney [1, 8]: 0.608 Gy/GBq | absorbed dose per GBq (Gy/GBq) - R. kidney [1, 8]: 0.593 Gy/GBq | absorbed dose (Gy) - L. kidney [1, 9]: 0.915 Gy | absorbed dose (Gy) - R. kidney [1, 9]: 0.876 Gy | absorbed dose per GBq (Gy/GBq) - L. kidney [1, 9]: 0.610 Gy/GBq | absorbed dose per GBq (Gy/GBq) - R. kidney [1, 9]: 0.584 Gy/GBq | absorbed dose (Gy) - L. kidney [1, 10]: 1.54 Gy | absorbed dose (Gy) - R. kidney [1, 10]: 2.07 Gy | absorbed dose per GBq (Gy/GBq) - L. kidney [1, 10]: 0.757 Gy/GBq | absorbed dose per GBq (Gy/GBq) - R. kidney [1, 10]: 1.020 Gy/GBq | absorbed dose (Gy) - L. kidney [1, 11]: 1.97 Gy | absorbed dose (Gy) - R. kidney [1, 11]: 1.70 Gy | absorbed dose per GBq (Gy/GBq) - L. kidney [1, 11]: 0.655 Gy/GBq | absorbed dose per GBq (Gy/GBq) - R. kidney [1, 11]: 0.565 Gy/GBq | absorbed dose (Gy) - L. kidney [1, 12]: 4.41 Gy | absorbed dose (Gy) - R. kidney [1, 12]: 4.84 Gy | absorbed dose per GBq (Gy/GBq) - L. kidney [1, 12]: 1.494 Gy/GBq | absorbed dose per GBq (Gy/GBq) - R. kidney [1, 12]: 1.638 Gy/GBq | absorbed dose (Gy) - L. kidney [1, 13]: 2.75 Gy | absorbed dose (Gy) - R. kidney [1, 13]: 2.65 Gy | absorbed dose per GBq (Gy/GBq) - L. kidney [1, 13]: 0.922 Gy/GBq | absorbed dose per GBq (Gy/GBq) - R. kidney [1, 13]: 0.889 Gy/GBq | absorbed dose (Gy) - L. kidney [1, 14]: 2.54 Gy | absorbed dose (Gy) - R. kidney [1, 14]: 2.83 Gy | absorbed dose per GBq (Gy/GBq) - L. kidney [1, 14]: 0.567 Gy/GBq | absorbed dose per GBq (Gy/GBq) - R. kidney [1, 14]: 0.632 Gy/GBq | absorbed dose (Gy) - L. kidney [1, 15]: 3.45 Gy | absorbed dose (Gy) - R. kidney [1, 15]: 3.54 Gy | absorbed dose per GBq (Gy/GBq) - L. kidney [1, 15]: 0.764 Gy/GBq | absorbed dose per GBq (Gy/GBq) - R. kidney [1, 15]: 0.784 Gy/GBq | absorbed dose (Gy) - L. kidney [1, 16]: 1.71 Gy | absorbed dose (Gy) - R. kidney [1, 16]: 1.85 Gy | absorbed dose per GBq (Gy/GBq) - L. kidney [1, 16]: 0.484 Gy/GBq | absorbed dose per GBq (Gy/GBq) - R. kidney [1, 16]: 0.522 Gy/GBq | absorbed dose (Gy) - L. kidney [1, 17]: 2.26 Gy | absorbed dose (Gy) - R. kidney [1, 17]: 2.75 Gy | absorbed dose per GBq (Gy/GBq) - L. kidney [1, 17]: 0.505 Gy/GBq | absorbed dose per GBq (Gy/GBq) - R. kidney [1, 17]: 0.612 Gy/GBq | absorbed dose (Gy) - L. kidney [1, 18]: 3.32 Gy | absorbed dose (Gy) - R. kidney [1, 18]: 3.08 Gy | absorbed dose per GBq (Gy/GBq) - L. kidney [1, 18]: 0.587 Gy/GBq | absorbed dose per GBq (Gy/GBq) - R. kidney [1, 18]: 0.543 Gy/GBq | absorbed dose (Gy) - L. kidney [1, 19]: 3.15 Gy | absorbed dose (Gy) - R. kidney [1, 19]: 2.81 Gy | absorbed dose per GBq (Gy/GBq) - L. kidney [1, 19]: 0.525 Gy/GBq | absorbed dose per GBq (Gy/GBq) - R. kidney [1, 19]: 0.469 Gy/GBq | absorbed dose (Gy) - L. kidney [1, 20]: 2.65 Gy | absorbed dose (Gy) - R. kidney [1, 20]: 2.50 Gy | absorbed dose per GBq (Gy/GBq) - L. kidney [1, 20]: 0.443 Gy/GBq | absorbed dose per GBq (Gy/GBq) - R. kidney [1, 20]: 0.417 Gy/GBq | absorbed dose (Gy) - L. kidney [1, 21]: 5.53 Gy | absorbed dose (Gy) - R. kidney [1, 21]: 5.41 Gy | absorbed dose per GBq (Gy/GBq) - L. kidney [1, 21]: 0.693 Gy/GBq | absorbed dose per GBq (Gy/GBq) - R. kidney [1, 21]: 0.678 Gy/GBq | absorbed dose (Gy) - L. kidney [1, 22]: 4.89 Gy | absorbed dose (Gy) - R. kidney [1, 22]: 3.75 Gy | absorbed dose per GBq (Gy/GBq) - L. kidney [1, 22]: 0.629 Gy/GBq | absorbed dose per GBq (Gy/GBq) - R. kidney [1, 22]: 0.482 Gy/GBq
